Source: patent US9233096B2, “Method of providing an anti-ulcer treatment with extracts and isolated flavonoids from Euphorbia cuneata” (King Saud University, priority 2011, dated 2016)

System: ethanol-induced gastric ulceration in male Wister rats
Experiment: Antiulcerogenic activity, ethanol-induced gastric ulcer model
Type: in vivo
Settings: 100 mg/kg orally; for Antiulcerogenic activity (in words): isolated compounds compared with reference drugs at 100 mg/kg; for No. of ulcers: three doses before ethanol 50% 10 ml/kg, mean ± SD, n = 6; for Curative ratio: versus ethanol control
Protocol: The antiulcerogenic activity of the total alcohol extract of Euphorbia cuneata was studied using ethanol-induced ulcer model at doses of 125, 250 and 500 mg/kg. […] The antioxidant properties to the total alcohol extract and the isolated compounds were evaluated using DPPH radical scavenging activity test. The liver and kidney functions were studied.
Male Wister rats (180-200 g) were used. […] Animals were divided into groups each of 6 rats and starved for 48 h before use to ensure an empty stomach. To avoid dehydration during the period of fasting, rats were supplied with sucrose (BDH) 8% (w/v) solution in NaCl (BDH) 0.2% (w/v), which was removed one hour before experimentation. The 1st group was kept as a normal control, while the 2nd one was kept as a positive control. Groups 3rd to 5th received the alcohol extract of E. cuneata in doses of 125, 250 and 500 mg/kg orally. […] The last three groups of rats were given ranitidine, apigenin and naringin orally as reference drugs in a dose of 100 mg/kg.
Two doses were given in the first day at 08:00 and 16:00 clock; a third dose was given on the second day 1.5 h before induction of gastric ulceration. All rats except the normal control were given ethanol (Merck) 50% (v/v) (in distilled water) in a dose of 10 ml/kg orally to induce gastric ulceration. Normal control rats received equivolumes of distilled water only at the same time intervals. One hour after ethanol administration, all rats were killed by an overdose of chloroform and the stomachs were rapidly removed, opened along their greater curvature and gently rinsed under running tap water. Lesions in the glandular part of the stomach were measured under an illuminated magnifying microscope (10×). Long lesions were counted and their lengths were measured. Petechial lesions were counted, and then each five petechial lesions were taken as 1 mm of ulcer. To calculate the ulcer index (mm), the sum of the total length of long ulcers and petechial lesions in each group of rats was divided by its number. The curative ratio was determined according to the formula: […]
The results obtained were statistically analyzed using “t” test.

Compound | Antiulcerogenic activity (in words) | No. of ulcers | Curative ratio
COc1ccc(-c2cc(=O)c3c(O)cc(O[C@@H]4O[C@H](CO[C@@H]5O[C@@H](C)[C@H](O)[C@@H](O)[C@H]5O)[C@@H](O)[C@H](O)[C@H]4O)cc3o2)cc1O [4′-O-methoxy-luteolin-7-O-rhamnoglucoside] | most effective | 2.003 ± 0.072 | 88.23
O=c1cc(-c2ccc(O)cc2)oc2cc(O)cc(O)c12 [Apigenin] | – | 4.122 ± 0.432 | 75.78
C[C@@H]1O[C@@H](O[C@H]2[C@H](Oc3cc(O)c4c(c3)O[C@H](c3ccc(O)cc3)CC4=O)O[C@H](CO)[C@@H](O)[C@@H]2O)[C@H](O)[C@H](O)[C@H]1O [Naringin] | – | 3.167 ± 0.872 | 81.40
CNC(=C[N+](=O)[O-])NCCSCc1ccc(CN(C)C)o1 [Rantidine] | – | 3.200 ± 0.800 | 81.20
Aromadendrin (2,3-dihydro-kaempferol) | as effective as naringin, apigenin and ranitidine | 3.558 ± 0.640 | 79.10
